Like-named read-outs stand apart in the source and are kept apart here.
Columns and labels:
[1] = system: root-knot nematode; experiment: Soil Mobility against root-knot nematode; format: in vivo, Meloidogyne incognita; details: 336 h
Procedure: (§1) Compounds of this invention were tested as follows for nematicidal and anthelmintic activity as dust formulations (initial and residual activity) and as acetone/water formulations (systemic activity). The formulations are described above.
The ability of nematicidal compounds of the invention to move through nematode-infested soil […] infested soil, and subsequently eluting the soil with 15 cm of water (equivalent to 15 cm of rainfall) into a series of two or more pots of untreated, but nematode-infested, soil. Specifically, the pots were 8 cm diameter plastic pots containing a 10 cm^3 layer of sand over a coarse grade filter paper disc. Sufficient soil was placed over the sand to fill the pots, and a second filter paper disc was placed over the soil. Each test compound-treated pot was nested over a series of two or more pots containing untreated, but nematode-infested soil, also containing sand filter paper discs as described for the treated soil pots. Fifteen cm of water was slowly dripped into the top pots and the pots were allowed to drain for 16-18 hours to remove excess water. The top filter of each pot was then removed and the pots were planted with a cucumber or tomato seedling. […] "Knot Index" and "Percent Control" are as defined in the initial root-knot nematode tests above.

[2] = system: lesion nematode; experiment: Lesion Nematode Test; format: in vivo; details: read-out: Percent Control
Procedure: as §1
The procedure was substantially the same as in the stunt nematode test described above except that pea seedlings were used. The results (Table 5 appended) show good control with many of the compounds at the application rates tested as compared with untreated samples (no control). "Percent Control" is defined as follows: [formula]

[3] = system: Caenorhabditis elegans; experiment: C. Elegans Nematode Screening Test and Evaluation (in-vitro); details: Caenorhabditis elegans
Procedure: This in-vitro test using the free-living nematode Caenorhabditis elegans, is a modification of the assay developed by Simpkin and Coles, J. Chem. Tech. […] One milliliter of a test medium consisting of 5 mg ampicillin, 10,000 units of mycostatin and 10 ml of a dense suspension of Escherichia coli per 100 ml of a buffer solution, was pipetted into each well of a 24-well microtiter plate. The candidate nematicide, suspended at the appropriate concentration in dimethylsulfoxide, was added to the wells in […] volumes. Each rate of application was replicated two to three times. After thorough mixing of the contents of each well, 50 to 100 μl of a nematode suspension in a buffer was added so that each well received 10-15 nematodes. After the nematodes were added, the microtiter plates were incubated at 20° C. for 5-6 days.
The effect of the candidate nematicide on the survival and the reproduction of C. elegans was then evaluated by comparison of the level of population developed in the treated wells with that in untreated wells. Specific effects on population development, such as reduced egg hatch or molting disruption, were noted if they were evident.

[4] = system: root-knot nematode (Meloidogyne incognita); experiment: Initial Root-Knot Nematicidal Activity; format: in vivo; details: 336 h, read-out: Percent Control; for pest or weed control at 1.25 ppm: Table 2, Application Rate 1.25 ppm
Procedure: as §1
The activity against root-knot nematode (Meloidogyne incognita) was determined by incorporating the compound of the invention in nematode infested soil at rates in the range of 10 ppm to 0.078 ppm of compound. Several tomato or cucumber seedlings were planted in the nematode infested soil. Two weeks after planting the test pots were evaluated to ascertain the degree of galling (swelling) on the roots of the plants, indicating the control provided by the test chemical.
The results expressed as precent control (determined by knot index) are set forth as averages in Table 2 (appended). Knot index is a numerical designation assigned at evaluation, having the following meanings:
Percent control is related to knot index as follows:
When the Knot Index is between 0 and 1 it is further subdivided as follows to indicate how close the percent control is to 75% or 100%: […]

[5] = system: stunt nematode; experiment: Stunt Nematode Test; format: in vivo
Procedure: as §1
The procedure was substantially the same as in the […] seedling, with subsequent inoculation of the soil with combined larvae and adult stunt nematodes. The samples were evaulated approximately four weeks after infestation. […] "Percent control" means the difference between average population counts between untreated and treated samples, divided by average population count of untreated sample, multiplied by 100.

[6] = system: root-knot nematode; experiment: Residual Root-Knot Nematicidal Activity; format: in vivo, Meloidogyne incognita; details: Table 3a, 5% dust, 5 ppm, read-out: Percent Control
Procedure: as §1
The ability of nematicidal compounds of the invention to control root-knot nematode infestations in soil over a period of time after treatment was evaluated. Dust formulations of test compound (5%) were incorporated into soil samples at test compound rates of 5 and 10 ppm. Subsequently, the treated soil samples were inoculated with nematode inoculum at weekly intervals, and Knot Index and Percent Control determined on seedlings planted in the soil samples. Specifically, soil treated with test compound was placed in 7.6 cm diameter fiber pots and stored in a greenhouse. At one, two and four weeks post-treatment, the appropriate number of pots was infested with root-knot nematode eggs and larvae. A cucumber or tomato seedling was planted in each pot and evaluated approximately two weeks after the soil infestation to obtain the test results reported in Tables 3 and 3a appended.

[7] = Table 7a, 5% dust, 5 ppm, BOTTOM container, read-out: Percent Control
[8] = Table 7a, 5% dust, 5 ppm, MIDDLE container, read-out: Percent Control
[9] = Table 7a, 5% dust, 5 ppm, TOP container, read-out: Percent Control
[10] = Table 2, Application Rate 0.312 ppm
[11] = Table 2, Application Rate 0.625 ppm
[12] = Table 2, Application Rate 2.5 ppm
[13] = read-out: Percent Control, Table 7a, 5% dust, 5 ppm, BOTTOM container
[14] = 672 h, Table 4a; rate 5 ppm; read-out: Percent Control
[15] = 168 h, inoculation 1 week post-treatment
[16] = 336 h, inoculation 2 weeks post-treatment
[17] = 672 h, inoculation 4 weeks post-treatment

Compound: FC(F)=C(F)CCSc1nnc(SCc2ccccc2F)s1 [Compound 34, 2-(2-fluorophenylmethylthio)-5-(3,4,4-trifluoro-3-butenylthio)-1,3,4-thiadiazole]
- pest or weed control at 5 ppm [1, 7]: 8%
- pest or weed control at 5 ppm [1, 8]: 67%
- pest or weed control at 5 ppm [1, 9]: 98%
- pest or weed control at 2.5 ppm ([2]; Table 5, rate 2.5 ppm): 52%
- inhibition at 5 ppm ([3]; Table 9 screen, 5 ppm, read-out: Percent Inhibition of Reproduction): 100%
- mortality at 5 ppm ([3]; Table 9 screen, 5 ppm, read-out: Percent Mortality): 25%
- mortality at 5 ppm ([3]; Table 10 evaluation, 5 ppm, read-out: Percent Mortality): 100%
- inhibition at 1.25 ppm ([3]; Table 10 evaluation, 1.25 ppm, read-out: Percent Inhibition of Reproduction): 0%
- mortality at 1.25 ppm ([3]; Table 10 evaluation, 1.25 ppm, read-out: Percent Mortality): 0%
- inhibition at 2.5 ppm ([3]; Table 10 evaluation, 2.5 ppm, read-out: Percent Inhibition of Reproduction): 100%
- mortality at 2.5 ppm ([3]; Table 10 evaluation, 2.5 ppm, read-out: Percent Mortality): 100%
- pest or weed control at 0.078 ppm ([4]; Table 2, Application Rate 0.078 ppm): 38%
- pest or weed control at 0.156 ppm ([4]; Table 2, Application Rate 0.156 ppm): 64%
- pest or weed control at 0.312 ppm [4, 10]: 86%
- pest or weed control at 0.625 ppm [4, 11]: 99%
- pest or weed control at 1.25 ppm [4]: 99%
- pest or weed control at 2.5 ppm [4, 12]: 100%

Compound: CC(C)Sc1nnc(SCCC(F)=C(F)F)s1 [Compound 30, 2-(1-methylethylthio)-5-(3,4,4-trifluoro-3-butenylthio)-1,3,4-thiadiazole]
- pest or weed control at 5 ppm [1, 8]: 100%
- pest or weed control at 5 ppm [1, 9]: 99%
- pest or weed control at 5 ppm [1, 13]: 17%
- pest or weed control at 2.5 ppm ([2]; Table 5, rate 2.5 ppm): 75%
- pest or weed control at 5 ppm [5, 14]: 66%
- pest or weed control at 5 ppm [6, 15]: 98%
- pest or weed control at 5 ppm [6, 16]: 97%
- pest or weed control at 5 ppm [6, 17]: 83%
- pest or weed control at 0.312 ppm [4, 10]: 97%
- pest or weed control at 0.625 ppm [4, 11]: 99%
- pest or weed control at 1.25 ppm [4]: 99%
- pest or weed control at 2.5 ppm [4, 12]: 100%

Compound: FC(F)=C(F)CCSc1cccs1 [Compound 10, 2-(3,4,4-trifluoro-3-butenylthio)thiopene]
- pest or weed control at 2.5 ppm [2]: 33%
- pest or weed control at 0.625 ppm [4, 11]: 63%
- pest or weed control at 1.25 ppm [4]: 81%
- pest or weed control at 5 ppm ([4]; Table 2, Application Rate 5.0 ppm): 99%
- pest or weed control at 2.5 ppm [4]: 95%

Compound: FC(F)=C(F)CCSc1nnc(CCc2ccccc2)o1 [Compound 47, 2-(2-phenylethyl)-5-(3,4,4-trifluoro-3-butenylthio)-1,3,4-oxadiazole]
- pest or weed control at 5 ppm [1, 7]: 58%
- pest or weed control at 5 ppm [1, 8]: 96%
- pest or weed control at 5 ppm [1, 9]: 98%
- pest or weed control at 2.5 ppm ([2]; Table 5, rate 2.5 ppm): 69%
- pest or weed control at 5 ppm [5, 14]: 35%
- pest or weed control at 5 ppm [6, 15]: 96%
- pest or weed control at 5 ppm [6, 16]: 25%
- pest or weed control at 5 ppm [6, 17]: 0%
- pest or weed control at 1.25 ppm [4]: 96%
- pest or weed control at 2.5 ppm [4, 12]: 100%
- pest or weed control at 0.312 ppm [4]: 95%
- pest or weed control at 0.625 ppm [4]: 95%

Compound: FC(F)=C(F)CCN=C=S [Compound 6, (3,4,4-trifluoro-3-butenyl) isothiocyanate]
- pest or weed control at 5 ppm ([5]; 672 h, Table 4; rate 5 ppm; read-out: Percent Control): 51%
- pest or weed control at 2.5 ppm [4]: 38%
- pest or weed control at 5 ppm [4]: 78%
- pest or weed control at 10 ppm [4]: 100%

Compound: CCCSc1nnc(SCCC(F)=C(F)F)s1 [Compound 29, 2-propylthio-5-(3,4,4-trifluoro-3-butenylthio)-1,3,4-thiadiazole]
- pest or weed control at 5 ppm [1, 7]: 50%
- pest or weed control at 5 ppm [1, 8]: 81%
- pest or weed control at 5 ppm [1, 9]: 98%
- pest or weed control at 2.5 ppm ([2]; Table 5, rate 2.5 ppm): 68%
- pest or weed control at 5 ppm [5, 14]: 56%
- pest or weed control at 5 ppm [6, 15]: 100%
- pest or weed control at 5 ppm [6, 16]: 98%
- pest or weed control at 5 ppm [6, 17]: 81%
- pest or weed control at 0.625 ppm [4, 11]: 99%
- pest or weed control at 1.25 ppm [4]: 99%
- pest or weed control at 2.5 ppm [4, 12]: 99%
- pest or weed control at 0.312 ppm [4]: 95%

Compound: FC(F)=C(F)CCSc1nnc(-c2ccc(F)cc2)o1 [Compound 50, 2-(4-fluorophenyl)-5-(3,4,4-trifluoro-3-butenylthio)-1,3,4-oxadiazole]
- pest or weed control at 5 ppm [1, 8]: 71%
- pest or weed control at 5 ppm [1, 9]: 98%
- pest or weed control at 5 ppm [1, 13]: 33%
- pest or weed control at 5 ppm ([5]; 672 h; Table 4a; rate 5 ppm; read-out: Percent Control): 53%
- pest or weed control at 0.312 ppm [4, 10]: 78%
- pest or weed control at 0.625 ppm [4, 11]: 99%
- pest or weed control at 1.25 ppm [4]: 99%
- pest or weed control at 2.5 ppm [4, 12]: 100%

Compound: N#CCCSc1nnc(SCCC(F)=C(F)F)s1 [Compound 28, 2-(2-cyanoethylthio)-5-(3,4,4-trifluoro-3-butenylthio)-1,3,4-thiadiazole]
- pest or weed control at 5 ppm [1, 7]: 68%
- pest or weed control at 5 ppm [1, 8]: 83%
- pest or weed control at 5 ppm [1, 9]: 68%
- pest or weed control at 2.5 ppm ([2]; Table 5, rate 2.5 ppm): 45%
- pest or weed control at 5 ppm [5, 14]: 38%
- pest or weed control at 5 ppm [6, 15]: 100%
- pest or weed control at 5 ppm [6, 16]: 100%
- pest or weed control at 5 ppm [6, 17]: 8%
- pest or weed control at 0.312 ppm [4, 10]: 81%
- pest or weed control at 0.625 ppm [4, 11]: 86%
- pest or weed control at 1.25 ppm [4]: 98%
- pest or weed control at 2.5 ppm [4, 12]: 100%

Compound: FC(F)=C(F)CCSc1nnc(-c2ccc(Br)cc2)o1 [Compound 49, 2-(4-bromophenyl)-5-(3,4,4-trifluoro-3-butenylthio)-1,3,4-oxadiazole]
- pest or weed control at 5 ppm [1, 7]: 8%
- pest or weed control at 5 ppm [1, 8]: 71%
- pest or weed control at 5 ppm [1, 9]: 99%
- pest or weed control at 5 ppm [5, 14]: 58%
- pest or weed control at 0.312 ppm [4, 10]: 98%
- pest or weed control at 0.625 ppm [4, 11]: 100%
- pest or weed control at 1.25 ppm [4]: 100%
- pest or weed control at 2.5 ppm [4, 12]: 100%
